Results: ChEMBL document CHEMBL3286148, “Aminoazabenzimidazoles, a novel class of orally active antimalarial agents” (J Med Chem, 2014)
Values after ≈ are worked out from the molar mass of the structure shown. Active and inactive are the calls of the source. The rule behind the calls is not given here.

system: Plasmodium falciparum; experiment: microbe, parasite or virus in culture; conditions: K1, 72 h

Point of comparison: `Nc1nc2ccc(OC3CCOC3)nc2n1CC(O)c1ccc(C(F)(F)F)cc1Cl` (racemic), IC50 18 nM. Against it:
- Nc1nccn1CC(O)c1ccc(Cl)cc1Cl (racemic) — 16-fold higher, 280 nM
- Cc1cc(Cl)ccc1C(O)Cn1ccnc1N (racemic) — higher, > 2000 nM
- N#Cc1ccc2nc(N)n(CC(O)c3cccc(Cl)c3Cl)c2c1 (racemic) — 17-fold higher, 300 nM
- Nc1nc2cccnc2n1CC(O)c1cccc(Cl)c1Cl (racemic) — 10-fold higher, 180 nM

system: not listed separately; experiment: Fraction unbound in human plasma; format: ADME, cell-free; conditions: not given

Point of comparison: `Nc1nc2ccc(OC3CCOC3)nc2n1CC(O)c1ccc(C(F)(F)F)cc1Cl` (racemic), fraction unbound 0.026. Against it:
- Nc1nc2cccnc2n1CC(O)c1cccc(Cl)c1Cl (racemic) — higher, 0.118

system: Plasmodium falciparum; experiment: Antiplasmodial activity against Plasmodium falciparum Dd2 harboring HSP90 mutant; format: functional, organism-based; conditions: not given

Point of comparison: `Cc1nc2c(C#N)cccc2n1-c1ccc(C(=O)NC2CC2)s1`, IC50 16.2 nM. Against it:
- CN1CCN(C(=O)c2ccc3c(c2)N(Cc2c(F)cccc2Cl)C(=O)c2ccccc2S3)CC1 — 1.9-fold lower, 8.42 nM

biological target: Cytochrome P450 2C9 (Homo sapiens, UniProt P11712); experiment: Inhibition of CYP2C9 (unknown origin); format: ADME; conditions: not given
Sequence (P11712 whole entry): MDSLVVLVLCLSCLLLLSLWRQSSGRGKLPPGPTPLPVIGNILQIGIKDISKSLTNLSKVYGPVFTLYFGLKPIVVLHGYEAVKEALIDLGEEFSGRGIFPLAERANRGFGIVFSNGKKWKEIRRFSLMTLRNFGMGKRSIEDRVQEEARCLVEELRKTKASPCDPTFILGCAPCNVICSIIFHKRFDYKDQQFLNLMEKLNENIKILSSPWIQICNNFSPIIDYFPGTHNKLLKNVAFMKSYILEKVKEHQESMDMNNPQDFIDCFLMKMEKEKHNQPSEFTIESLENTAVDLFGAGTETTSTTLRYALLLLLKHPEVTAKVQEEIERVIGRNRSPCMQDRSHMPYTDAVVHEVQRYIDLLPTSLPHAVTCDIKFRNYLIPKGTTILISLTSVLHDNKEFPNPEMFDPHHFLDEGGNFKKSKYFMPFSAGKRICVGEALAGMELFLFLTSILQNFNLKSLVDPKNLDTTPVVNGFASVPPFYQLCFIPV

`Nc1nc2ccc(OC3CCOC3)nc2n1CC(O)c1ccc(C(F)(F)F)cc1Cl` (racemic) and `Nc1nc2cccnc2n1CC(O)c1cccc(Cl)c1Cl` (racemic) cannot be ordered by IC50: over 30000 nM for the first, over 30000 nM for the second.

biological target: T1, Cytochrome P450 1A2 (Homo sapiens, UniProt P05177); experiment: Inhibition of CYP1A2 (unknown origin); format: ADME; conditions: not given
T1 sequence (P05177 whole entry): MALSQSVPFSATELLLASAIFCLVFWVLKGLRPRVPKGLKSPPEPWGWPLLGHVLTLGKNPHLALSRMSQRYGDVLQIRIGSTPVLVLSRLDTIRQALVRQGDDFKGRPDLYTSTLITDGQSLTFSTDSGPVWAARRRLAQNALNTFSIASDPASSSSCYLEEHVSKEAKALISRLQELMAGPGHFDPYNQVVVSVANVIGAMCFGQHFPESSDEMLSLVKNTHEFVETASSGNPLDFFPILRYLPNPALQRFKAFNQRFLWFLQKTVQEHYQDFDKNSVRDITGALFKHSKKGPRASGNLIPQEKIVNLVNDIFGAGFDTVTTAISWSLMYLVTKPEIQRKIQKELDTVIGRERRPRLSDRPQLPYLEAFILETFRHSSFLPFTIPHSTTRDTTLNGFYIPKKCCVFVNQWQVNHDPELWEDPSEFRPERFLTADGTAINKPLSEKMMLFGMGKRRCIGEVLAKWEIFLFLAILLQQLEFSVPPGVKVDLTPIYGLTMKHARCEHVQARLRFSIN

Point of comparison: `Nc1nc2cccnc2n1CC(O)c1cccc(Cl)c1Cl` (racemic), IC50 5200 nM. Against it:
- Nc1nc2ccc(OC3CCOC3)nc2n1CC(O)c1ccc(C(F)(F)F)cc1Cl (racemic) — higher, > 30000 nM

system: not listed separately; experiment: Clearance in human liver microsomes; format: ADME; conditions: read-out: CLH

Point of comparison: `N#Cc1ccc2nc(N)n(CC(O)c3cccc(Cl)c3Cl)c2c1` (racemic), microsomal CLint 96 µL/min/mg. Against it:
- Nc1nc2ccc(OC3CCOC3)nc2n1CC(O)c1ccc(C(F)(F)F)cc1Cl (racemic) — within 1.5-fold, 76 µL/min/mg
- Nc1nc2cccnc2n1CC(O)c1cccc(Cl)c1Cl (racemic) — within 1.5-fold, 69 µL/min/mg

biological target: Cytochrome P450 2C19 (Homo sapiens, UniProt P33261); experiment: Inhibition of CYP2C19 (unknown origin); format: ADME; conditions: not given
Sequence (P33261 whole entry): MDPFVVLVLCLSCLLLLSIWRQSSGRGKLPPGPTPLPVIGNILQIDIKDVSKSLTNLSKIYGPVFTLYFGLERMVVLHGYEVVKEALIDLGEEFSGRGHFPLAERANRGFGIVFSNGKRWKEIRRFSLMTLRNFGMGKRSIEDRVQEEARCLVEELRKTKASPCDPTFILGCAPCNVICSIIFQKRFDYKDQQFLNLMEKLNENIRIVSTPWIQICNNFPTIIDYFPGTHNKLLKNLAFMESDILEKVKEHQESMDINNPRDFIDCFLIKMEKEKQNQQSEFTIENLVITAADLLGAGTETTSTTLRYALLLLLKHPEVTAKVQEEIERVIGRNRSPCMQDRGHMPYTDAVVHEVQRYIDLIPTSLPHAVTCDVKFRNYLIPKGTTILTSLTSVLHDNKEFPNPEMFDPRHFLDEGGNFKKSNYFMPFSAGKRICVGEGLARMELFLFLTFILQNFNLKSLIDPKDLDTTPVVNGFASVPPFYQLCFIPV

Point of comparison: `Nc1nc2cccnc2n1CC(O)c1cccc(Cl)c1Cl` (racemic), IC50 10200 nM. Against it:
- Nc1nc2ccc(OC3CCOC3)nc2n1CC(O)c1ccc(C(F)(F)F)cc1Cl (racemic) — 13-fold lower, 780 nM

system: Plasmodium falciparum; experiment: Antiplasmodial activity against chloroquine and pyrimethamine-sensitive Plasmodium falciparum 3D7A assessed as parasite reduction ratio at 10 times IC50 after 48 hrs; format: functional, organism-based; conditions: not given

For `Nc1nc2ccc(OC3CCOC3)nc2n1CC(O)c1ccc(C(F)(F)F)cc1Cl` (racemic), the Activity was “Active”.

system: not listed separately; experiment: Clearance in rat hepatocytes assessed per 1E6 cells; format: ADME, cell-based, Hepatocyte; conditions: read-out: CLH

Point of comparison: `Nc1nc2cccnc2n1CC(O)c1cccc(Cl)c1Cl` (racemic), hepatocyte CLint 110 µL/min/1e6 cells. Against it:
- Nc1nc2ccc(OC3CCOC3)nc2n1CC(O)c1ccc(C(F)(F)F)cc1Cl (racemic) — within 1.5-fold, 105 µL/min/1e6 cells
- N#Cc1ccc2nc(N)n(CC(O)c3cccc(Cl)c3Cl)c2c1 (racemic) — 2.1-fold lower, 53 µL/min/1e6 cells

system: Plasmodium falciparum; experiment: microbe, parasite or virus in culture; conditions: NF54, 72 h

Point of comparison: `Nc1nccn1CC(O)c1ccc(Cl)cc1Cl` (racemic), IC50 380 nM. Against it:
- Cc1cc(Cl)ccc1C(O)Cn1ccnc1N (racemic) — higher, > 2000 nM
- Nc1nc2ccc(OC3CCOC3)nc2n1CC(O)c1ccc(C(F)(F)F)cc1Cl (racemic) — 15-fold lower, 25 nM
- N#Cc1ccc2nc(N)n(CC(O)c3cccc(Cl)c3Cl)c2c1 (racemic) — 13-fold lower, 29 nM
- Nc1nc2cccnc2n1CC(O)c1cccc(Cl)c1Cl (racemic) — within 1.5-fold, 340 nM

system: Plasmodium falciparum; experiment: Antiplasmodial activity against Plasmodium falciparum Dd2 harboring CYTb-Qi mutant; format: functional, organism-based; conditions: not given

Point of comparison: `COC1=C2C[C@@H](C)C[C@H](OC)[C@H](O)[C@@H](C)/C=C(\C)[C@H](OC(N)=O)[C@@H](OC)/C=C\C=C(/C)C(=O)NC(=CC1=O)C2=O` [GELDANAMYCIN], IC50 169 nM. Against it:
- Cc1nc2c(C#N)cccc2n1-c1ccc(C(=O)NC2CC2)s1 — 17-fold lower, 9.94 nM
- CN1CCN(C(=O)c2ccc3c(c2)N(Cc2c(F)cccc2Cl)C(=O)c2ccccc2S3)CC1 — 53-fold lower, 3.16 nM

system: not listed separately; experiment: Aqueous solubility of the compound; format: physicochemical; conditions: buffer

Point of comparison: `Nc1nc2ccc(OC3CCOC3)nc2n1CC(O)c1ccc(C(F)(F)F)cc1Cl` (racemic), solubility 160 µM (≈ 70.9 µg/mL). Against it:
- Nc1nc2cccnc2n1CC(O)c1cccc(Cl)c1Cl (racemic) — 6.2-fold lower, 26 µM (≈ 8.4 µg/mL)

biological target: Cytochrome P450 3A4 (Homo sapiens, UniProt P08684); experiment: Inhibition of CYP3A4 (unknown origin); format: ADME; conditions: not given
Sequence (P08684 whole entry): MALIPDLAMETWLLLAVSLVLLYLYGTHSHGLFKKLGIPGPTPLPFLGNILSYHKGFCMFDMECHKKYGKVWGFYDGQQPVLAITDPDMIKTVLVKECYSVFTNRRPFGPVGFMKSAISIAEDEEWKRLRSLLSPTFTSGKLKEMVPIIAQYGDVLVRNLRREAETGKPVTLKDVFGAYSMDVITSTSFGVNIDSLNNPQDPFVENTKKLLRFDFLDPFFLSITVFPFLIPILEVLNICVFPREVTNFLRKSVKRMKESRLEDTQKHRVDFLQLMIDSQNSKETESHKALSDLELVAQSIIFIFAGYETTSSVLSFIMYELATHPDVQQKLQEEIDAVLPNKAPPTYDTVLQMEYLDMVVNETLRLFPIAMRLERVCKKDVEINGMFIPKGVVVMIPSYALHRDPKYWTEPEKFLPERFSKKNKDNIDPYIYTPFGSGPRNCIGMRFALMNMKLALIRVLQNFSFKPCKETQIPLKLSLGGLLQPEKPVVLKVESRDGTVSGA

Point of comparison: `Nc1nc2ccc(OC3CCOC3)nc2n1CC(O)c1ccc(C(F)(F)F)cc1Cl` (racemic), IC50 2400 nM. Against it:
- Nc1nc2cccnc2n1CC(O)c1cccc(Cl)c1Cl (racemic) — higher, > 30000 nM

system: not listed separately; experiment: Lipophilicity, log D of the compound; format: physicochemical; conditions: octanol/water

Point of comparison: `Nc1nc2ccc(OC3CCOC3)nc2n1CC(O)c1ccc(C(F)(F)F)cc1Cl` (racemic), logD 3.7. Against it:
- Nc1nc2cccnc2n1CC(O)c1cccc(Cl)c1Cl (racemic) — lower, 3

system: Plasmodium falciparum; experiment: Antiplasmodial activity against Plasmodium falciparum Dd2; format: functional, organism-based; conditions: not given

Point of comparison: `Cc1nc2c(C#N)cccc2n1-c1ccc(C(=O)NC2CC2)s1`, IC50 5.79 nM. Against it:
- COC1=C2C[C@@H](C)C[C@H](OC)[C@H](O)[C@@H](C)/C=C(\C)[C@H](OC(N)=O)[C@@H](OC)/C=C\C=C(/C)C(=O)NC(=CC1=O)C2=O [GELDANAMYCIN] — 30-fold higher, 176 nM
- CN1CCN(C(=O)c2ccc3c(c2)N(Cc2c(F)cccc2Cl)C(=O)c2ccccc2S3)CC1 — within 1.5-fold, 7.3 nM

system: not listed separately; experiment: Selectivity index, ratio of IC50 for human A549 cells to IC50 for Plasmodium falciparum; format: toxicity, cell-based; conditions: read-out: Ratio IC50

Point of comparison: `Nc1nc2cccnc2n1CC(O)c1cccc(Cl)c1Cl` (racemic), selectivity ratio 26. Against it:
- Nc1nccn1CC(O)c1ccc(Cl)cc1Cl (racemic) — higher, > 263
- Cc1cc(Cl)ccc1C(O)Cn1ccnc1N (racemic) — higher, > 50
- Nc1nc2ccc(OC3CCOC3)nc2n1CC(O)c1ccc(C(F)(F)F)cc1Cl (racemic) — higher, 800

biological target: Cytochrome P450 2D6 (Homo sapiens, UniProt P10635); experiment: Inhibition of CYP2D6 (unknown origin); format: ADME; conditions: not given
Sequence (P10635 whole entry): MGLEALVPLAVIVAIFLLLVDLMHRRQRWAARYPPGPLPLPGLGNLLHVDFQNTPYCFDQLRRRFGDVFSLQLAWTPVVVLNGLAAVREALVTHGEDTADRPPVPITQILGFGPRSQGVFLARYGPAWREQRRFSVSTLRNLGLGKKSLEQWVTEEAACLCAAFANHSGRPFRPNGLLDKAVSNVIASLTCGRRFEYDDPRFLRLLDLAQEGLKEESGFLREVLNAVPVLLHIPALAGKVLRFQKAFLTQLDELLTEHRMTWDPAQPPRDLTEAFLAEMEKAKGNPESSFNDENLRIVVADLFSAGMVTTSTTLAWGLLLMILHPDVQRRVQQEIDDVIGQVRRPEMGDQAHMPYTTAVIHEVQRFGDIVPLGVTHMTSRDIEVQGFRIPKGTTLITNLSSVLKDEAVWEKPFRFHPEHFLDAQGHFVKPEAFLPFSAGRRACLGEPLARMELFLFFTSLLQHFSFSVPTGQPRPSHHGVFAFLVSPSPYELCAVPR

Point of comparison: `Nc1nc2ccc(OC3CCOC3)nc2n1CC(O)c1ccc(C(F)(F)F)cc1Cl` (racemic), IC50 12500 nM. Against it:
- Nc1nc2cccnc2n1CC(O)c1cccc(Cl)c1Cl (racemic) — higher, > 30000 nM

system: Plasmodium falciparum; experiment: Antiplasmodial activity against Plasmodium falciparum Dd2 harboring DHODH mutant; format: functional, organism-based; conditions: not given

Point of comparison: `Cc1nc2c(C#N)cccc2n1-c1ccc(C(=O)NC2CC2)s1`, IC50 76.8 nM. Against it:
- COC1=C2C[C@@H](C)C[C@H](OC)[C@H](O)[C@@H](C)/C=C(\C)[C@H](OC(N)=O)[C@@H](OC)/C=C\C=C(/C)C(=O)NC(=CC1=O)C2=O [GELDANAMYCIN] — 3.3-fold higher, 257 nM
- CN1CCN(C(=O)c2ccc3c(c2)N(Cc2c(F)cccc2Cl)C(=O)c2ccccc2S3)CC1 — 4.5-fold lower, 16.9 nM

biological target: Voltage-gated inwardly rectifying potassium channel KCNH2 (Homo sapiens, UniProt Q12809); experiment: Inhibition of human ERG; conditions: not given
Sequence (Q12809 whole entry): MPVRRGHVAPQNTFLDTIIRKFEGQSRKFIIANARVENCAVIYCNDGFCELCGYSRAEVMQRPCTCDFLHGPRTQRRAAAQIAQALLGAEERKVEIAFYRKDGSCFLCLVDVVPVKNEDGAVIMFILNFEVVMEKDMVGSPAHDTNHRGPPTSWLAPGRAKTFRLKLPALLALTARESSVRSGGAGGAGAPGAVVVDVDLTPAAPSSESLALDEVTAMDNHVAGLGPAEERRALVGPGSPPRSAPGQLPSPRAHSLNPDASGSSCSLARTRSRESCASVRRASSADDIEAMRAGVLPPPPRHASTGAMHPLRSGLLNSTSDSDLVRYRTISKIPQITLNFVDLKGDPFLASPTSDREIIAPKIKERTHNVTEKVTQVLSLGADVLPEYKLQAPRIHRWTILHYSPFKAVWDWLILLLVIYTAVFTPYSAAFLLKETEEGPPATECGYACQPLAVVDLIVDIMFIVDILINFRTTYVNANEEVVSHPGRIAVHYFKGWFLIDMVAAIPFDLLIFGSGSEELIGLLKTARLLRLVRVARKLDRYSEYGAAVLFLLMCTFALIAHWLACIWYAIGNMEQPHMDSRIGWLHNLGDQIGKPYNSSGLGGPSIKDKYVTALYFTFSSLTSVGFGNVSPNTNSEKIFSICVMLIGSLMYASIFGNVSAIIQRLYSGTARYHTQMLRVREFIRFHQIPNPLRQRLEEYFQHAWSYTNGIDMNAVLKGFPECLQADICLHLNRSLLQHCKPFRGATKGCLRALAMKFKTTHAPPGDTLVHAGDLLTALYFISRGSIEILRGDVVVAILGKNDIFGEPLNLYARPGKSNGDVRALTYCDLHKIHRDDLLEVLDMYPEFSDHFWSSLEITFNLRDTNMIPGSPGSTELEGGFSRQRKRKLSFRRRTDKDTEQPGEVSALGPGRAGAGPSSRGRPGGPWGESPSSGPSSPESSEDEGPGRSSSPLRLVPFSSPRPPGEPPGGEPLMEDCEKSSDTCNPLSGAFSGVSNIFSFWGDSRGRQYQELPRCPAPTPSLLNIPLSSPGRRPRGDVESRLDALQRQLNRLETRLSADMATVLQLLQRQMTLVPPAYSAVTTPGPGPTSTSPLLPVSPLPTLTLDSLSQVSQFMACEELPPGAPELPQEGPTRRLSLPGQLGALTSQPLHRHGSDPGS

Point of comparison: `Nc1nc2ccc(OC3CCOC3)nc2n1CC(O)c1ccc(C(F)(F)F)cc1Cl` (racemic), IC50 16600 nM. Against it:
- Nc1nc2cccnc2n1CC(O)c1cccc(Cl)c1Cl (racemic) — higher, > 33300 nM

system: not listed separately; experiment: Clearance in mouse liver microsomes; format: ADME; conditions: read-out: CLH

Work on `Nc1nc2ccc(OC3CCOC3)nc2n1CC(O)c1ccc(C(F)(F)F)cc1Cl` (racemic) yielded a microsomal CLint of 90 µL/min/mg.

system: Plasmodium falciparum; experiment: Antiplasmodial activity against Plasmodium falciparum Dd2 harboring CRT mutant; format: functional, organism-based; conditions: not given

Point of comparison: `Cc1nc2c(C#N)cccc2n1-c1ccc(C(=O)NC2CC2)s1`, IC50 5.07 nM. Against it:
- COC1=C2C[C@@H](C)C[C@H](OC)[C@H](O)[C@@H](C)/C=C(\C)[C@H](OC(N)=O)[C@@H](OC)/C=C\C=C(/C)C(=O)NC(=CC1=O)C2=O [GELDANAMYCIN] — 40-fold higher, 204 nM
- CN1CCN(C(=O)c2ccc3c(c2)N(Cc2c(F)cccc2Cl)C(=O)c2ccccc2S3)CC1 — 210-fold higher, 1040 nM
